Among the data in US20250114359A1, “METHODS FOR […] G[…]/OR HEXOKINASE” (UNIVERSITY OF SOUTH CAROLINA, priority 2023, published 2025) are Ki values, retold here.

The structures appear in SMILES notation. pKi: −log10 of the molar value.

In the experiment the target is Trypanosoma cruzi glucokinase (TcGlcK) (Trypanosoma cruzi, UniProt Q4E4E1). Put plainly: Determination of Ki values by type 1 and type 2 Dixon plots.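 Note: compounds supplied as 10 mM DMSO stocks (100 µL format), with a non-inhibitory compound run alongside for comparison.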 In kind it is biochemical.
Sequence of Trypanosoma cruzi glucokinase (TcGlcK) (Q4E4E1 1-376): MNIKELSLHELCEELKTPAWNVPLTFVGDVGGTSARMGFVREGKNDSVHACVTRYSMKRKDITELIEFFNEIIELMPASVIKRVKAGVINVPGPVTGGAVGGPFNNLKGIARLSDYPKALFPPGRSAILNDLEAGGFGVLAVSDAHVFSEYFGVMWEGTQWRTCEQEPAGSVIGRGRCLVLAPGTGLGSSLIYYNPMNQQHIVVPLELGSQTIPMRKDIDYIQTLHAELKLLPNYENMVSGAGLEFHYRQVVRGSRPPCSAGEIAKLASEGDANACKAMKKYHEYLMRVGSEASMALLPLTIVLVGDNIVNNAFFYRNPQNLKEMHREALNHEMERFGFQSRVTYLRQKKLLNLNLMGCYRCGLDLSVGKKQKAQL
Protocol: The inhibition constant can be determined by development of a Dixon plot (either type 1 or type 2) according to standard practice, and as utilized herein refers to the inhibitor concentration at which half maximum inhibition is determined for a 100 μL/10 mM format in DMSO.
Determination of the Ki values for inhibitors was performed by creation of both type 1 and type 2 Dixon plots. The format included 100 μL/10 mM in DMSO.
In general, pKi refers to the Ki on a negative log10 scale, so that one unit is a factor of ten. Read a low pKi as a large Ki. On to `CCOC(=O)Nc1ccc(/N=C/c2c(O)c(O)c(C(C)C)c3cc(C)c(-c4c(C)cc5c(C(C)C)c(O)c(O)c(/C=N/c6ccc(NC(=O)OCC)cc6)c5c4O)c(O)c23)cc1` [Inhibitor 12], for which the pKi is 2.33. Under `Cc1cc2c(C(C)C)c(O)c(O)c(/C=N/Nc3nc4ccccc4[nH]c3=O)c2c(O)c1-c1c(C)cc2c(C(C)C)c(O)c(O)c(/C=N/Nc3nc4ccccc4[nH]c3=O)c2c1O` [Inhibitor 7] stands 5.42; under `Cc1cc2c(c(O)c1-c1c(C)cc3c(c1O)C(C=C1C(=O)NC(=O)NC1=O)C(=O)C(O)=C3C(C)C)C(C=C1C(=O)NC(=O)NC1=O)C(=O)C(O)=C2C(C)C` (stereo not drawn) [Inhibitor 32], 4.98. Next, `Cc1cc2c(c(O)c1-c1c(C)cc3c(c1O)/C(=C/Nc1ccccc1C(=O)O)C(=O)C(O)=C3C(C)C)/C(=C/Nc1ccccc1C(=O)O)C(=O)C(O)=C2C(C)C` (atropisomer, axis not shown) [Inhibitor 15]: 5.92; `Cc1cc2c(C(C)C)c(O)c(O)c(/C=N/NC(=O)c3ccoc3C)c2c(O)c1-c1c(C)cc2c(C(C)C)c(O)c(O)c(/C=N/NC(=O)c3ccoc3C)c2c1O` (atropisomer, axis not shown) [Inhibitor 39]: 5.04; `Cc1cc2c(C(C)C)c(O)c(O)c(/C=N/NC(=O)C(C)C)c2c(O)c1-c1c(C)cc2c(C(C)C)c(O)c(O)c(/C=N/NC(=O)C(C)C)c2c1O` [Inhibitor 6]: 4.52.

For the molecule `CCCC(CCC)/N=C/c1c(O)c(O)c(C(C)C)c2cc(C)c(-c3c(C)cc4c(C(C)C)c(O)c(O)c(/C=N/C(CCC)CCC)c4c3O)c(O)c12` (atropisomer, axis not shown) [Inhibitor 46], the pKi was 4.00. Next, `Cc1cc2c(C(C)C)c(O)c(O)c(/C=N/Nc3cccc(Cl)n3)c2c(O)c1-c1c(C)cc2c(C(C)C)c(O)c(O)c(/C=N/Nc3cccc(Cl)n3)c2c1O` [Inhibitor 9]: 4.96; `CCCCCC1CCC(=O)N1CCN/C=C1\C(=O)C(O)=C(C(C)C)c2cc(C)c(-c3c(C)cc4c(c3O)/C(=C/NCCN3C(=O)CCC3CCCCC)C(=O)C(O)=C4C(C)C)c(O)c21` (stereo not drawn) [Inhibitor 75]: 3.25; `Cc1cc(C(=O)N/N=C/c2c(O)c(O)c(C(C)C)c3cc(C)c(-c4c(C)cc5c(C(C)C)c(O)c(O)c(/C=N/NC(=O)c6cc(C)[nH]n6)c5c4O)c(O)c23)n[nH]1` [Inhibitor 4]: 4.72. Molecule `Cc1ccc(O)c(/N=C/c2c(O)c(O)c(C(C)C)c3cc(C)c(-c4c(C)cc5c(C(C)C)c(O)c(O)c(/C=N/c6cc(C)ccc6O)c5c4O)c(O)c23)c1` (atropisomer, axis not shown) [Inhibitor 54] had a pKi of 5.52. Under `Cc1cc(OCC/N=C/c2c(O)c(O)c(C(C)C)c3cc(C)c(-c4c(C)cc5c(C(C)C)c(O)c(O)c(/C=N/CCOc6cc(C)c(Cl)c(C)c6Cl)c5c4O)c(O)c23)c(Cl)c(C)c1Cl` (atropisomer, axis not shown) [Inhibitor 79] stands 3.90. The molecule `COc1cc(/C=N/c2c(C)n(C)n(-c3ccccc3)c2=O)ccc1O` [Inhibitor 62] showed a pKi of 4.70. Next, `Cc1cc2c(C(C)C)c(O)c(O)c(/C=N/c3cccc(N4CCCC4=O)c3)c2c(O)c1-c1c(C)cc2c(C(C)C)c(O)c(O)c(/C=N/c3cccc(N4CCCC4=O)c3)c2c1O` (atropisomer, axis not shown) [Inhibitor 87]: 4.75. On to `Cc1cc2c(C(C)C)c(O)c(O)c(/C=N/CCOc3ccc4c(c3)CCC4)c2c(O)c1-c1c(C)cc2c(C(C)C)c(O)c(O)c(/C=N/CCOc3ccc4c(c3)CCC4)c2c1O` (atropisomer, axis not shown) [Inhibitor 82], for which the pKi is 4.00.
